The source of these data is patent US7196199B2, “Phenoxypropylamine compounds” (Mitsubishi Pharma Corporation, priority 1999, dated 2007).

The target in assay [1] is T1, 5-HT1A receptor (Rattus norvegicus, UniProt P19327).
T1 sequence (P19327 1-422): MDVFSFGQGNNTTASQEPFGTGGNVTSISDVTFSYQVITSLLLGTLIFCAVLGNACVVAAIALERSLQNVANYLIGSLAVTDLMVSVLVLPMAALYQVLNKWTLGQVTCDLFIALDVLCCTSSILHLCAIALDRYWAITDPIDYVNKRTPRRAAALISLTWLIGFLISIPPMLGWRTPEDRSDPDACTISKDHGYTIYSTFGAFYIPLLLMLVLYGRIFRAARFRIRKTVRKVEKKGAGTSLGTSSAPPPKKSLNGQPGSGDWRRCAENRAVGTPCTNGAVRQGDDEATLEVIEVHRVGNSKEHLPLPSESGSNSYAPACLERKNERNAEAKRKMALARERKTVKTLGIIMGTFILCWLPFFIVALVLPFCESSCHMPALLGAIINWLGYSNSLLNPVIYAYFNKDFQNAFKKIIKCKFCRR
Description: 5-HT1A receptor binding test. The procedure: The experiment was conducted according to the method of M. D. Hall et al (J. Neurochem. 44, 1685–1696 (1985)).
Cryopreserved rat hippocampus was homogenized in a 20-fold wet weight amount of 50 mM Tris-HCl buffer (pH 7.4), and the homogenate was centrifuged at 500×g for 10 min. The supernatant was centrifuged at 40000×g for 10 min and the sediment was incubated at 37° C. for 10 min, which was followed by centrifugation at 40000×g for 10 min. To the sediment was added a 20-fold amount of 50 mM Tris-HCl buffer (pH 7.4) and the mixture was homogenized, which was followed by centrifugation again at 40000×g for 10 min. 50 mM Tris-HCl buffer (pH 7.4, 100-fold volume) containing 1 mM MnCl2 was added to the sediment and the mixture was homogenized, which was used as a membrane solution. To a 96 well plate were successively added a test solution ([…]), (^3H)-8-OH-DPAT ((±)-8-hydroxy-2-(DL-N-propylamino)tetraline, Sigma, lot No. 57H4131) solution (final concentration 2 nM, […]) and the membrane solution (0.45 ml) preincubated at 37° C., and incubated at 37° C. for 12 min. After completion, the reaction mixture was filtered through a GF/B glass filter and the filter was washed 5 times with 50 mM Tris-HCl buffer (pH 7.4). The radioactivity left on the filter was measured with a Top Count. For total binding measurement, 0.005N hydrochloric acid ([…]) was used, and for the measurement of nonspecific binding, a test solution containing WAY-100635 (final concentration […]) instead of the test substance was used. The total binding and nonspecific binding were measured in quadruplicate, and the test substance was measured in duplicate.
The IC50 value was calculated by two-point interpolation and Ki value was calculated according to the following equation using Kd value obtained from each measurement. Ki=IC50/(1+C/Kd)
IC50: concentration of 50% binding inhibition
C: concentration of ligand

The target in the next assay is T2, 5-HT transporter (Rattus norvegicus, UniProt P31652).
T2 construct: Rat brain cortex was homogenized using Polytron; from tissue; host or cells: rat brain cortex membranes
T2 sequence (P31652 whole entry): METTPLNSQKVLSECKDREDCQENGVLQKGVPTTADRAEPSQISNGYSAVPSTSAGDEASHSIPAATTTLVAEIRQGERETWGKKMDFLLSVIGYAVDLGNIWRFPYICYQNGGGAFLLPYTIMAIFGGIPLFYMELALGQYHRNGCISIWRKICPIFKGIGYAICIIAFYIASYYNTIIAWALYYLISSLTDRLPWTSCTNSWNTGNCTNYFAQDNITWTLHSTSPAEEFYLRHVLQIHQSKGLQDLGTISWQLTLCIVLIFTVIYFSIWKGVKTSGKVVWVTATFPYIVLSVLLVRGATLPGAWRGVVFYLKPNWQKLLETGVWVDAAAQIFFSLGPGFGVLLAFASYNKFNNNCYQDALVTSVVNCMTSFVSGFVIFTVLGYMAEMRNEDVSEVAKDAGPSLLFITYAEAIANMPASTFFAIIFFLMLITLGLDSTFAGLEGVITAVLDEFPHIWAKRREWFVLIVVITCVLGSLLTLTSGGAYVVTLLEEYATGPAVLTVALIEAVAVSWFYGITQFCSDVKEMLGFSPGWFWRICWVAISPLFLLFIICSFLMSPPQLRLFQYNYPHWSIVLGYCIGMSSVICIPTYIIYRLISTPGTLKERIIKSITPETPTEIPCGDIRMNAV
Description: 5-HT transporter binding test. The procedure: Rat brain cortex was homogenized using Polytron in ice-cooled 50 mmol/L Tris-HCl buffer (pH 7.4). After centrifugation at 1000×g and 4° C. for 10 min, the supernatant was transferred to a different centrifugation tube. This was centrifuged at 40000×g and 4° C. for 20 min, and 50 mmol/L Tris-HCl buffer (pH 7.4) was added to the sediment to give a suspension. This was incubated at 37° C. for 10 min, centrifuged at 40000×g and 4° C. for 20 min, and suspended in 50 mmol/L Tris-HCl buffer (pH 7.4) (diluted 100-fold of brain wet weight) containing 120 mmol/L NaCl and 5 mmol/L KCl, which was used as a membrane solution. For binding inhibition test, it was reacted with (^3H) paroxetine prepared to the final concentration of 0.2 nmol/L in a plastic test tube at 25° C. for 90 min. For total binding, a solvent was used and for nonspecific binding, fluvoxamine having a final concentration of 10 μmol/L was used.
Using a cell harvester, the reaction mixture was filtered through a GF/B glass filter treated with 0.1% polyethyleneimine to stop the reaction and washed 3 times with 3 mL of ice-cooled 50 mmol/L Tris-HCl buffer (pH 7.4). The radioactivity was measured using a β plate.

Assay [2] addresses T1, 5-HT1A receptor. Description: Electrophysical evaluation of agonist/antagonist of 5-HT1A receptor (nystatin perforated patch clamp, dorsal raphe nuclei cell). The conditions noted are these: 10^−7 mol/L, isolated rat dorsal raphe nuclei cell. The format is cell-based. Also noted: The isolated nerve cell (dorsal raphe nuclei cell) was subjected to nystatin perforated patch clamp method; endogenous in cells; host or cells: acutely dissociated dorsal raphe nuclei neurons of 2-week-old male Wistar rat. The method, then:
The experiment followed the method of Katayama et al (Brain Res.; 745, 283–292, 1997).
The brain of 2-week-old male Wistar rat was extracted, and a brain thin section (thickness 350 μm) containing dorsal raphe nuclei was prepared using a microslicer. The brain thin section was treated in Ringer's solution containing pronase (0.4 mg/mL) and protease type X (0.25 mg/mL) at 30° C. for 25 min and 15 min, respectively, and the dorsal raphe nuclei region was micropunched out. The brain thin section punched out was subjected to pipetting in a culture dish filled with the Ringer's solution to isolate the nerve cell. The isolated nerve cell (dorsal raphe nuclei cell) was subjected to nystatin perforated patch clamp method (Akaike & Harata, Jpn. J. Physiol.; 44, 433–437, 1994) and the inward K^+ current induced by the test substance and the like was measured under membrane voltage-clamp condition (VH=−60 mV). For the measurement of the inward K^+ current via the 5-HT1A receptor, an extracellular solution and a patch pipette solution having the following compositions were used simultaneously. • extracellular solution (mmol/L): NaCl, 135; KCl, 20; MgCl2, 1; CaCl2, 2; D-glucose, 10; HEPES, 10; tetrodotoxin, 3×10^−4; LaCl3, 10 • patch pipette solution (mmol/L): KCl, 150; HEPES, 10
To the above-mentioned patch pipette solution was added nystatin. (Sigma, Lot No. 33H0762) to the final concentration of 75 μg/mL before the electric measurement.
The current response was measured with a voltage clamp amplifier (List Medical, L/M-EPC7), and the obtained results were recorded on a chart of a recticorder (Nihondenki Sanei, RECTIHORIZ-8K), digitized by a PCM recording device (NF electric Instruments, RP-882) and videotaped by a VCR (Panasonic, NV-G40).
The administration of the test substance and the like followed a Y-tube method (Murase et al., Brain Res.; 525, 84–91, 1990).
First, 8-OH-DPAT (10^−7 mol/L) was administered to the isolated nerve cell (dorsal raphe nuclei cell) obtained above, and the level of the inward K^+ current response was measured.
8-OH-DPAT was washed out for 2 min from the above-mentioned cells and the test substance and pindolol (reference substance which is an antagonist) were administered for 1 min, and the level of the inward K^+ current response by each of them was measured. From immediately after administration of the test substance or the reference substance, a mixture of 8-OH-DPAT ([…]) and the test substance or reference substance was administered, and the level of the induced inward K^+ current response was measured. The measurement results and the level of the current response in the same cell by 8-OH-DPAT alone were compared, based on which the antagonistic action on the 8-OH-DPAT induction current was considered. Every current response was expressed upon standardizing according to the following calculation equation based on the level of the 8-OH-DPAT (10^−7 mol/L) induction current in the same cell.
The inward K^+ current response inducing action (5-HT1A agonistic action) by the test substance alone was determined from the following equation. inward K^+ current response inducing action (%) by test substance alone=(ITD÷IDPAT)×100 • ITD: level of inward K^+ current response by test substance alone • IDPAT: level of 8-OH-DPAT (10^−7 mol/L) induced inward K^+ current in the same cell
The suppressive effect (5-HT1A antagonistic action) on the 8-OH-DPAT induced inward K^+ current by the test substance was determined according to the following equation. antagonistic action of test substance on 8-OH-DPAT induced inward K^+ current (% of control)=(IMIX÷IDPAT)×100
IMIX: level of 8-OH-DPAT (10^−7 mol/L) induced inward K^+ current in the presence of test substance

pKi: −log10 of the molar value. Where a name gives a salt, the structure may show the parent alone. Read-outs that look alike come from different tables or passages of the source.

Consider `CC(C)c1nnc(-c2cc3c(OC[C@@H](O)CN4CCC(c5ccc6c(c5)OCO6)CC4)cccc3o2)o1` [Example 138, (S)-1-(2-(5-(1-methylethyl)-1,3,4-oxadiazol-2-yl)benzo(b)furan-4-yloxy)-3-(4-(3,4-methylenedioxyphenyl)piperidino)-2-propanol hydrochloride], for which the pKi (usually the Ki on a negative log10 scale, so that one unit is a factor of ten) on 5-HT1A receptor [1] (rat hippocampus membrane, (3H)-8-OH-DPAT 2 nM, read-out: 5-HT1A receptor binding Ki value) was 9.17. The pKi on 5-HT transporter (rat brain cortex membrane, (3H) paroxetine 0.2 nmol/L, read-out: 5-HT transporter binding Ki value) is 8.80. For the same compound, at 5-HT1A receptor [2] (8-OH-DPAT 10^−7 mol/L), the “antagonistic action (% of control) of the test substance on the 8-OH-DPAT induced inward K+ current” value is reported as “almost nil”. Besides, on 5-HT1A receptor [2], the “agonist/antagonist character at 5-HT1A receptor” value is reported as “silent antagonists” and the “inward K+ current inducing action (%) by the test substance alone” value was “almost nil”.
Turning to `O[C@H](COc1cccc2[nH]ccc12)CN1CCC(O)(c2ccc3ccccc3c2)CC1` [compound for reference, (S)-1-(4-indolyloxy)-3-[4-hydroxy-4-(2-naphthyl)piperidino]propan-2-ol, reference compound], the pKi on 5-HT1A receptor [1] is 9.80; at 5-HT transporter, 7.26. Moreover, the “agonist/antagonist character at 5-HT1A receptor” value at 5-HT1A receptor [2] is listed as “partial agonist”.
